For 13 compounds, TGI results are on record in PubChem BioAssay (NCI).

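Test compounds were applied to cells in 96-well plates for 48 hours at 5 doses. At the TGI there is no net growth.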 Bounds are passed on as bounds.

Among the test systems are COLO 205 colon; OVCAR-3 ovarian; OVCAR-5 ovarian; TK-10 renal; UACC-62 melanoma; NCI/ADR-RES ovarian; SNB-75 CNS; HCC-2998 colon; SK-MEL-28 melanoma; BT-549 breast.
Holding throughout (experiment): NCI anticancer screen, dose series, 48 h

Regarding `O=C(NCc1cccnc1)C(=O)NCc1cccnc1`, the TGI in the assay on COLO 205 colon, with OVCAR-3 ovarian, in the assay on OVCAR-5 ovarian, in the assay on TK-10 renal, in the assay on UACC-62 melanoma and with NCI/ADR-RES ovarian was greater than 100 µM each time. Moreover, the TGI with SNB-75 CNS, in the assay on HCC-2998 colon, with SK-MEL-28 melanoma and with BT-549 breast was greater than 100 µM throughout.
`O=C1C(=Cc2ccccc2[N+](=O)[O-])N=C(c2ccccc2)N1n1c(-c2ccccc2)nc2ccccc2c1=O`: the TGI in the assay on COLO 205 colon is greater than 100 µM; with OVCAR-3 ovarian, greater than 100 µM; in the assay with OVCAR-5 ovarian, greater than 100 µM; with TK-10 renal, greater than 100 µM; with UACC-62 melanoma it was 46.6 µM; with NCI/ADR-RES ovarian, 62.6 µM. Further, the TGI with SNB-75 CNS, in the assay on HCC-2998 colon, in the assay with SK-MEL-28 melanoma and in the assay on BT-549 breast was greater than 100 µM throughout.
On to `CC(C)c1nccn1Cc1ccc(Cl)cc1Cl`, for which the TGI in the assay with COLO 205 colon, in the assay on OVCAR-3 ovarian, with OVCAR-5 ovarian, in the assay with TK-10 renal, in the assay with UACC-62 melanoma and in the assay with NCI/ADR-RES ovarian was greater than 100 µM each time. The TGI in the assay on SNB-75 CNS is 85 µM; with HCC-2998 colon it was 88.6 µM; in the assay on SK-MEL-28 melanoma it was greater than 100 µM; with BT-549 breast it was greater than 100 µM.
For the compound `O=c1oc2ccccc2c(O)c1Cc1cccc(Cc2c(O)c3ccccc3oc2=O)c1`, the TGI with COLO 205 colon, with OVCAR-3 ovarian, in the assay with OVCAR-5 ovarian, with TK-10 renal, in the assay with UACC-62 melanoma and in the assay with NCI/ADR-RES ovarian was greater than 100 µM each time. In addition, the TGI in the assay on SNB-75 CNS, with HCC-2998 colon, with SK-MEL-28 melanoma and in the assay on BT-549 breast was greater than 100 µM in each case.
Take `COc1ccc(C(C)NNC(=O)c2ccncc2)cc1F` (stereo not given): the TGI in the assay on COLO 205 colon, in the assay with OVCAR-3 ovarian, in the assay on OVCAR-5 ovarian, with TK-10 renal, with UACC-62 melanoma and in the assay with NCI/ADR-RES ovarian was greater than 100 µM throughout. In addition, the TGI in the assay with SNB-75 CNS, in the assay on HCC-2998 colon, in the assay with SK-MEL-28 melanoma and in the assay with BT-549 breast was greater than 100 µM throughout.
Regarding `Nc1ccc(-c2nc3ccccc3s2)cc1`, the TGI with COLO 205 colon is 45.2 µM; in the assay with OVCAR-3 ovarian it was 33.3 µM; in the assay on OVCAR-5 ovarian, 36.5 µM; with TK-10 renal it was 42.3 µM; in the assay with UACC-62 melanoma it was 38.6 µM; in the assay with NCI/ADR-RES ovarian it was 56.4 µM. The TGI is 58.1 µM in the assay on SNB-75 CNS, greater than 100 µM in the assay with HCC-2998 colon, 33 µM in the assay with SK-MEL-28 melanoma and 28.9 µM in the assay with BT-549 breast.
As to `Cc1cc(C)c2c(c1)CC1(Cc3c(C)cc(C)cc3C1=O)C2=O` (stereo not given), the TGI with COLO 205 colon, in the assay with OVCAR-3 ovarian, in the assay with OVCAR-5 ovarian, in the assay with TK-10 renal, with UACC-62 melanoma and with NCI/ADR-RES ovarian was greater than 100 µM in each case. In addition, the TGI in the assay on SNB-75 CNS, in the assay with HCC-2998 colon, with SK-MEL-28 melanoma and in the assay with BT-549 breast was greater than 100 µM each time.
Take `COC(=O)C[C@H](CCSC)NC(=O)C[C@H](CCSC)NC(=O)C[C@H](CCSC)NC(=O)OC(C)(C)C`: the TGI with COLO 205 colon is greater than 100 µM; with OVCAR-3 ovarian it was 48 µM; with OVCAR-5 ovarian, greater than 100 µM; in the assay with TK-10 renal, 42.2 µM; with UACC-62 melanoma, 84.3 µM; in the assay on NCI/ADR-RES ovarian, greater than 100 µM. Besides, the TGI is 29 µM in the assay with SNB-75 CNS, greater than 100 µM in the assay on HCC-2998 colon, greater than 100 µM with SK-MEL-28 melanoma and greater than 100 µM with BT-549 breast.
`COC(=O)C1[C@H](C(=O)OC)C1(Br)CBr` (stereo not given in full): the TGI with COLO 205 colon, in the assay with OVCAR-3 ovarian, with OVCAR-5 ovarian, with TK-10 renal, in the assay with UACC-62 melanoma and in the assay on NCI/ADR-RES ovarian was greater than 100 µM each time. Further, the TGI with SNB-75 CNS, with HCC-2998 colon, in the assay on SK-MEL-28 melanoma and with BT-549 breast was greater than 100 µM each time.
`COC1=CC(=O)c2c(cc(COP(=O)(N(C)CCBr)N(C)CCBr)n2C)C1=O`: the TGI with COLO 205 colon amounted to 2.56 µM; with OVCAR-3 ovarian it was 10.7 µM; in the assay with OVCAR-5 ovarian, 4.35 µM; with TK-10 renal, 2.01 µM; in the assay with UACC-62 melanoma it was 2.26 µM; with NCI/ADR-RES ovarian, 16.7 µM. In addition, the TGI with SNB-75 CNS was 0.971 µM; in the assay with HCC-2998 colon, 1.77 µM; in the assay on SK-MEL-28 melanoma, 3.51 µM; with BT-549 breast, 3.94 µM.
As for `Cn1c(=O)c2sc3cc4c(cc3c2c2ccccc21)sc1c(=O)n(C)c2ccccc2c14`, the TGI in the assay with COLO 205 colon, in the assay on OVCAR-3 ovarian, in the assay on OVCAR-5 ovarian, with TK-10 renal, with UACC-62 melanoma and in the assay with NCI/ADR-RES ovarian was greater than 100 µM each time. The TGI in the assay with SNB-75 CNS was 93.6 µM; in the assay with HCC-2998 colon, greater than 100 µM; in the assay with SK-MEL-28 melanoma, greater than 100 µM; with BT-549 breast it was 46.4 µM.
On to `COc1ccc(N2C(=O)/C(=C/c3ccc(N(CCC#N)CCC#N)cc3)N=C2c2ccccc2)c(OC)c1`, for which the TGI in the assay with COLO 205 colon, in the assay with OVCAR-3 ovarian, in the assay with OVCAR-5 ovarian, in the assay with TK-10 renal, in the assay on UACC-62 melanoma and in the assay on NCI/ADR-RES ovarian was greater than 100 µM throughout. Moreover, the TGI in the assay on SNB-75 CNS, with HCC-2998 colon, in the assay on SK-MEL-28 melanoma and in the assay on BT-549 breast was greater than 100 µM in each case.
In the case of `N#Cc1c(-c2ccc(Cl)cc2)cc(-c2nc3ccccc3[nH]2)nc1N`, the TGI was 20.1 µM in the assay on COLO 205 colon; 41.8 µM in the assay with OVCAR-3 ovarian; 43.4 µM in the assay with OVCAR-5 ovarian; 27.3 µM in the assay on TK-10 renal; 21.2 µM in the assay with UACC-62 melanoma; 48.4 µM in the assay with NCI/ADR-RES ovarian. Also, the TGI came out at 31.2 µM in the assay on SNB-75 CNS, 14.3 µM with HCC-2998 colon, 36 µM with SK-MEL-28 melanoma and 30.5 µM with BT-549 breast.
